Tests used:
[1] = target: Hydroxycarboxylic acid receptor 2 (Homo sapiens, UniProt Q8TDS4)
D(1A) dopamine receptor = D(1A) dopamine receptor (Homo sapiens, UniProt P21728)
[2] = target: T1, Alpha-1A adrenergic receptor (Homo sapiens, UniProt P35348)
T1 sequence (P35348 whole entry): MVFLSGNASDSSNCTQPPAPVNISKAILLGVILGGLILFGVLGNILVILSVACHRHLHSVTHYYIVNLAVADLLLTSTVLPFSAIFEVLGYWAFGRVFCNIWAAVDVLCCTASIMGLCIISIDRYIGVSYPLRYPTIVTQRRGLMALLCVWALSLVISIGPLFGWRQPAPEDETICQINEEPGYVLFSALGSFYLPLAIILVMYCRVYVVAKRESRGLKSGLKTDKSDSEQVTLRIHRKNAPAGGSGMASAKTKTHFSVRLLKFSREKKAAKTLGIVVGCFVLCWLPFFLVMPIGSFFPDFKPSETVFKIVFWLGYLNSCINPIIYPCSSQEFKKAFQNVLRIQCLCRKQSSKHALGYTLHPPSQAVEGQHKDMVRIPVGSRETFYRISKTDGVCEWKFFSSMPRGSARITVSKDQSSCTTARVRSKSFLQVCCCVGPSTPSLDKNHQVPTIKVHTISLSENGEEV

Estrogen receptor beta = Estrogen receptor beta (Homo sapiens, UniProt Q92731)
Chain of Estrogen receptor beta (Q92731 whole entry): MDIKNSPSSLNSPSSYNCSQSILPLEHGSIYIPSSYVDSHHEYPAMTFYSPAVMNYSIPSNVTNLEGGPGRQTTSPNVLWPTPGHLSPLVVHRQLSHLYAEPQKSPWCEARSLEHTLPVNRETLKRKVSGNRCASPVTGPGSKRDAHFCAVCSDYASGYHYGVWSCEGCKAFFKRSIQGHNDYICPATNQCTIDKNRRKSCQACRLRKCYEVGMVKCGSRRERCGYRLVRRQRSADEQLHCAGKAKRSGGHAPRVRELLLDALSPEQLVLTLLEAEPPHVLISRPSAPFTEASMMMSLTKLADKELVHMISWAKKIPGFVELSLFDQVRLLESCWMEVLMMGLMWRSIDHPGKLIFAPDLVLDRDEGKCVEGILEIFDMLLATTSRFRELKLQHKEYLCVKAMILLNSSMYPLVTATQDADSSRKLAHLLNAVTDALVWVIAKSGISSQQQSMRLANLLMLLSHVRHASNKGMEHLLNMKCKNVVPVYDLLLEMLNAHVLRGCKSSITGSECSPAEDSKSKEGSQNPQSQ

D(4) dopamine receptor = target: T2, D(4) dopamine receptor (Homo sapiens, UniProt P21917)
T2 sequence (P21917 whole entry): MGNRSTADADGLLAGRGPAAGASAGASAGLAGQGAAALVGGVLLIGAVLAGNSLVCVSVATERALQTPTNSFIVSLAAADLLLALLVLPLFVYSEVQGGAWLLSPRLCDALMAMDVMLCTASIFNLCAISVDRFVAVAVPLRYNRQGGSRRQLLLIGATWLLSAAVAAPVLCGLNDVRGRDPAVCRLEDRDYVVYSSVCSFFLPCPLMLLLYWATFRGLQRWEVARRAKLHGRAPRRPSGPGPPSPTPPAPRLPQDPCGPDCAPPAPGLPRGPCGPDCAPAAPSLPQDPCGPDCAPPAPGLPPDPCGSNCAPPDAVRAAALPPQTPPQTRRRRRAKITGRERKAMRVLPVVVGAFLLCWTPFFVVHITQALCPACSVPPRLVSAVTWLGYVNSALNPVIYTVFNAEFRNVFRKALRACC

[3] = target: Gamma-aminobutyric acid type B receptor subunit 1 (Homo sapiens, UniProt Q9UBS5)
Chain of Gamma-aminobutyric acid type B receptor subunit 1 (Q9UBS5 whole entry): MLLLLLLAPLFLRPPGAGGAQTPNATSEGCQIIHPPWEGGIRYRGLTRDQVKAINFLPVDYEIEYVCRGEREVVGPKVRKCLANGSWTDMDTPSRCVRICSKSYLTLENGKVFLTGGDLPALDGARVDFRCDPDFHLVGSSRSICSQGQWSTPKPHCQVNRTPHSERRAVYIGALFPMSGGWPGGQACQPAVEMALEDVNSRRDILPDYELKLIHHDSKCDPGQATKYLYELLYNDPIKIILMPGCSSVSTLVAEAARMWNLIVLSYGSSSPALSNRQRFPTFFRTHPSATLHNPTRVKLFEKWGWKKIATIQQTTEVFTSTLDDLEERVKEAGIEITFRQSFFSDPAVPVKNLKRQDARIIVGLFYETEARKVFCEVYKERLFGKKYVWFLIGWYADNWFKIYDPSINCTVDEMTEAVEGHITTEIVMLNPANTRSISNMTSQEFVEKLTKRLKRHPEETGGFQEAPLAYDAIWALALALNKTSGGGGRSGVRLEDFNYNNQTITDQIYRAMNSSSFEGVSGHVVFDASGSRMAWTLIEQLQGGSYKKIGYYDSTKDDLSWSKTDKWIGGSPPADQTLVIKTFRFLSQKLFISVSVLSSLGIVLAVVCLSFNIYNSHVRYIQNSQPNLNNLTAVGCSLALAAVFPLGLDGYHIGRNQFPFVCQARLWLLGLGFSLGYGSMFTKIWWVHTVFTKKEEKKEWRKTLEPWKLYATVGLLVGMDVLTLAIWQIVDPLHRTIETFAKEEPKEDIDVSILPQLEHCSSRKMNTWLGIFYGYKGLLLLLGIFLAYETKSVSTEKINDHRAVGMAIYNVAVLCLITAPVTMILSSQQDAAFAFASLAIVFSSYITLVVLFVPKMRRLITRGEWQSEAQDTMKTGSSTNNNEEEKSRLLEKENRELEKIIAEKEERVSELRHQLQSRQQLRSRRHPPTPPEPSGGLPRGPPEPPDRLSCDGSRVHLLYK

[4] = target: 5-hydroxytryptamine receptor 5A (Homo sapiens, UniProt P47898)
Chain of 5-hydroxytryptamine receptor 5A (P47898 whole entry): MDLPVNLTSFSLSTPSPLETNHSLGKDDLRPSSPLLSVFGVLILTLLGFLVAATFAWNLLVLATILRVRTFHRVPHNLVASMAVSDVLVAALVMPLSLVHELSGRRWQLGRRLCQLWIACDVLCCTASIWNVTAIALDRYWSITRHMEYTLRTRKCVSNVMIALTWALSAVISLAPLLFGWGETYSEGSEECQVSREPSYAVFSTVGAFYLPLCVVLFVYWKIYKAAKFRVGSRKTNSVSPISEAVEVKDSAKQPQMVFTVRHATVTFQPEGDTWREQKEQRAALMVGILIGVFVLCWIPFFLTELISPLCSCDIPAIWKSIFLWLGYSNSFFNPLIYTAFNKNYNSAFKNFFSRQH

[5] = target: T3, Muscarinic acetylcholine receptor M5 (Homo sapiens, UniProt P08912)
T3 sequence (P08912 whole entry): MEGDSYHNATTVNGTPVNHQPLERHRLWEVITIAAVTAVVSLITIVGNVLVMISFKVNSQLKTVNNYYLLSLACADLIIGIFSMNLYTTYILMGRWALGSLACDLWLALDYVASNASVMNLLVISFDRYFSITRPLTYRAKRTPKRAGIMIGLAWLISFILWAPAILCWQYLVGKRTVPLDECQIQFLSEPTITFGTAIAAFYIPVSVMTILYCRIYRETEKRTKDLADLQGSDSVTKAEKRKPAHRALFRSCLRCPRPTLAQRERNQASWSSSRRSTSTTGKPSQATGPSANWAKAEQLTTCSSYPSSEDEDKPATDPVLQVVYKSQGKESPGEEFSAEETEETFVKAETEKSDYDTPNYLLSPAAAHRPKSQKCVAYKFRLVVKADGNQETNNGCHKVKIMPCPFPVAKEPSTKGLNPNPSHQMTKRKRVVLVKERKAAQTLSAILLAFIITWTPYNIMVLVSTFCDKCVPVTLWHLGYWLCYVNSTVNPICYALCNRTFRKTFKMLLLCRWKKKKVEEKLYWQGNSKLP

Substance-K receptor = target: T4, Substance-K receptor (Homo sapiens, UniProt P21452)
T4 sequence (P21452 whole entry): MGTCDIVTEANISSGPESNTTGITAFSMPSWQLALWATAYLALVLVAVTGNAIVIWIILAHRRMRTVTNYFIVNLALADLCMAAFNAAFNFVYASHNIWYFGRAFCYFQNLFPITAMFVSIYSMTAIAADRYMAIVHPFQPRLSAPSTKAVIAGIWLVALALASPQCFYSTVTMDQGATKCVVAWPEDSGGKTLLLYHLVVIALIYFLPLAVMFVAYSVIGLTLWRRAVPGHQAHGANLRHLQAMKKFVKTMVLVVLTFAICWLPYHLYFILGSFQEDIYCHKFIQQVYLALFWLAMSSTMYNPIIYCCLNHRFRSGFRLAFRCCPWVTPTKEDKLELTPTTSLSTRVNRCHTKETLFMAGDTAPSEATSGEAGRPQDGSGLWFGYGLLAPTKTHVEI

[6] = target: T5, Peroxisome proliferator-activated receptor gamma (Homo sapiens, UniProt P37231); format: functional
T5 sequence (P37231 whole entry): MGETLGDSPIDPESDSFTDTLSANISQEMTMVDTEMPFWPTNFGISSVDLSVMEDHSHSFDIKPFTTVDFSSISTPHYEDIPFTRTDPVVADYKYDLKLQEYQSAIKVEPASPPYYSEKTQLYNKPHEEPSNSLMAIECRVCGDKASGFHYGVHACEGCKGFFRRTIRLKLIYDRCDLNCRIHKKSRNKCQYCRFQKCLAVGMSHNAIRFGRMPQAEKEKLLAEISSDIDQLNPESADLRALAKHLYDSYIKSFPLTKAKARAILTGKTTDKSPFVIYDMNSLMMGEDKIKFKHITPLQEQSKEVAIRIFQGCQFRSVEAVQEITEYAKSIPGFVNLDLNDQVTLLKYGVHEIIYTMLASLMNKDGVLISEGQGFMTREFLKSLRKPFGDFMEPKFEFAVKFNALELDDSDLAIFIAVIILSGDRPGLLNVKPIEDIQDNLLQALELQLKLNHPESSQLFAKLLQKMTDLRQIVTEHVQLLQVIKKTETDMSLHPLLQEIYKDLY
Further: assay procedure not described here.

Chain of Hydroxycarboxylic acid receptor 2 (Q8TDS4 whole entry): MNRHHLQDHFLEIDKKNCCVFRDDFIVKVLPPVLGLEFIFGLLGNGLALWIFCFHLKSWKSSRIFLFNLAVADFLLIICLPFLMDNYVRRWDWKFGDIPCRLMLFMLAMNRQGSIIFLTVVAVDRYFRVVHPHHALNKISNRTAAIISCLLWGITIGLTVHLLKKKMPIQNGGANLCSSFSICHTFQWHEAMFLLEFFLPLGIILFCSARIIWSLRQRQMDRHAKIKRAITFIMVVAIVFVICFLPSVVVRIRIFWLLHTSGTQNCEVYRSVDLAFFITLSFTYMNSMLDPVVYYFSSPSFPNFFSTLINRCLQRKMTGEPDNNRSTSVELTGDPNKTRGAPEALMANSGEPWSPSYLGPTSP
Chain of D(1A) dopamine receptor (P21728 whole entry): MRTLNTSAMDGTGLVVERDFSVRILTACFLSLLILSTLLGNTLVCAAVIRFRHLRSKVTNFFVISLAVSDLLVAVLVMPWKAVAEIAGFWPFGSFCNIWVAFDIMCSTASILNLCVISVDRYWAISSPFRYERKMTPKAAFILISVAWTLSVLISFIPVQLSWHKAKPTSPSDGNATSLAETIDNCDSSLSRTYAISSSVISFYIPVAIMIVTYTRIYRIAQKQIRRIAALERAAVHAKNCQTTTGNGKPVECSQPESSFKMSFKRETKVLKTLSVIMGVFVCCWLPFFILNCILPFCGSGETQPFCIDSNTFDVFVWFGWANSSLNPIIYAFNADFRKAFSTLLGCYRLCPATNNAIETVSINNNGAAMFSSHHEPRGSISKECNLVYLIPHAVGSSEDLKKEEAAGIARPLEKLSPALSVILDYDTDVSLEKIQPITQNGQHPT

Structure (SMILES)	AC50 (D(1A) dopamine receptor) [µM]	AC50 [2] [µM]	AC50 (Estrogen receptor beta) [µM]	AC50 (D(4) dopamine receptor) [µM]	AC50 [6] [µM]	other results
COc1ccc2cccc(CCNC(C)=O)c2c1 [AGOMELATINE]	> 10	> 10	> 30	> 10		AC50 [1]: > 10 µM
CN1CCc2cccc3c2[C@H]1Cc1ccc(O)c(O)c1-3 [APOMORPHINE]			> 30			
CC(C)c1c(C(=O)Nc2ccccc2)c(-c2ccccc2)c(-c2ccc(F)cc2)n1CC[C@@H](O)C[C@@H](O)CC(=O)O [ATORVASTATIN]						AC50 [3]: > 10 µM
NC(CO)C(=O)NNCc1ccc(O)c(O)c1O (stereo not given) [BENSERAZIDE]	> 10					
CN(C)C(=O)OC1N=C(c2ccccc2)c2cc(Cl)ccc2N(C)C1=O (stereo not given) [CAMAZEPAM]	> 10	> 10	> 30	> 10		AC50 [4]: > 10 µM; AC50 [5]: > 10 µM; AC50 (Substance-K receptor): > 10 µM; AC50 [3]: > 10 µM
CCCCCOC(=O)Nc1nc(=O)n([C@@H]2O[C@H](C)[C@@H](O)[C@H]2O)cc1F [CAPECITABINE]					> 30	
CC(C)(Oc1ccc(C2CC2(Cl)Cl)cc1)C(=O)O (stereo not given) [CIPROFIBRATE]					> 30	
[H]/N=C(/N)c1ccc(NCc2nc3cc(C(=O)N(CCC(=O)O)c4ccccn4)ccc3n2C)cc1 [DABIGATRAN]					> 30	
CN[C@@H](C)[C@H](O)c1ccccc1 [EPHEDRINE]	> 10	> 10	> 30	> 10		AC50 [1]: > 10 µM
CCNC(C)Cc1cccc(C(F)(F)F)c1 (stereo not given) [FENFLURAMINE]						AC50 [3]: > 10 µM
O=C1CN=C(c2ccccc2)c2cc(Cl)ccc2N1CC(F)(F)F [HALAZEPAM]					> 30	
CCCCCN(C)CCC(O)(P(=O)(O)O)P(=O)(O)O [IBANDRONIC ACID]	> 10	> 10	> 30	> 10		
Cc1cccc(C)c1NC(=O)C1CCCCN1C (stereo not given) [MEPIVACAINE]					> 30	
C[C@H]1C[C@@H]2[C@H]([C@@H](O)C[C@@]3(C)[C@H]2CC[C@]3(O)C(=O)COC(=O)CCC(=O)O)[C@@]2(C)C=CC(=O)C=C12 [METHYLPREDNISOLONE HEMISUCCINATE]					> 30	
Cc1cc(-c2ccccc2)nnc1NCCN1CCOCC1 [MINAPRINE]	> 10	> 10	> 30	> 10		AC50 [1]: > 10 µM
NC(=O)C[S+]([O-])C(c1ccccc1)c1ccccc1 (stereo not given) [MODAFINIL]	> 10	> 10	> 30	> 10		AC50 [4]: > 10 µM; AC50 [5]: > 10 µM; AC50 (Substance-K receptor): > 10 µM; AC50 [3]: > 10 µM
CCCCCCC(C)(C)c1cc(O)c2c(c1)OC(C)(C)C1CCC(=O)CC21 (stereo not given) [NABILONE]					> 30	
O=C(O)CCCc1ccccc1 [PHENYLBUTANOIC ACID]		> 10	> 30	> 10		AC50 [5]: > 10 µM; AC50 (Substance-K receptor): > 10 µM; AC50 [3]: > 10 µM
CCCOc1ccc(C(=O)OCCN(CC)CC)cc1N [PROPARACAINE]					> 30	
Nc1nc2ccc(OC(F)(F)F)cc2s1 [RILUZOLE]					> 30	
Cc1c(C(=O)Nc2ccc(N3C[C@@H](C)O[C@@H](C)C3)nc2)cccc1-c1ccc(OC(F)(F)F)cc1 [SONIDEGIB]	> 10	> 10	> 30	> 10		
Cc1ccc(-c2nc3ccc(C)cn3c2CC(=O)N(C)C)cc1 [ZOLPIDEM]	> 10	> 10		> 10		AC50 [4]: > 10 µM; AC50 [5]: > 10 µM; AC50 (Substance-K receptor): > 10 µM; AC50 [3]: > 10 µM
CN1CCN(C(=O)OC2c3nccnc3C(=O)N2c2ccc(Cl)cn2)CC1 (stereo not given) [ZOPICLONE]	> 10	> 10	> 30	> 10	> 30	
